Measured values published in article PMC13198257, “An aerosolized dual-action autotaxin inhibitor-PPARγ agonist for the treatment of pulmonary fibrosis” (Cell Reports Medicine, 2026).

Assays:
[1] = Fast-track PK of compound 5: plasma exposure after i.v., i.p., inhalation, per os; type: in vivo, mice; settings: 30 mg/kg, 1 and 3 h post-dose, versus i.v.
[2] = target: hERG (Homo sapiens, UniProt Q12809); experiment: hERG inhibition; type: biochemical
[3] = target: T1, Autotaxin (Homo sapiens, UniProt Q13822); experiment: HDX-MS of Autotaxin with and without EL244; type: binding
T1 construct: purchased Sino Biological 11308-H07H
Protocol: All HDX experiments were performed using a dual head parallel Trajan LEAP automation system (Carrboro, NC, USA).[153] Briefly, 5μL of reconstituted Autotaxin (1.25mg/mL) with and without EL244, was diluted into 100μL of labeling buffer (10mM PBS, 150mM sodium chloride, pD = 7.4 in D2O). pD was determined using pH measurements with a glass electrode and corrected for the isotopic effect.[154] Samples were labeled in quadruplicate for each labeling time (30s, 300s and 3000s) at 25°C. For experiments with bounded Autotaxin, both the protein stock and labeling buffer contained 50μM of the ligand to ensure >95% bound protein during labeling.[155] Afterward, 100 μL of labeled samples were quenched by mixing with equal amounts of precooled quench buffer (100mM glycine, 3M urea, 0.5M TCEP, pH 2.3 in water) at 1°C and held at that temperature for 120s to improve disulfide bond reduction. Non-deuterated controls and initial peptide map samples were prepared identically but using 10mM PBS, 150mM sodium chloride, pH = 7.4 in water as labeling buffer. […] Peptide masses were measured using a Waters SELECT SERIES cyclic IMS QTOF system using positive mode ionization and single pass ion mobility. All HDX experiments were measured using HDMS mode while initial peptide maps used HDMSE with a collision energy ramp of 20-45v.[156] […]

[4] = test system: 3T3-L1; experiment: Differentiation of 3T3-L1 fibroblasts into adipocytes; type: cell-based
Protocol: Adipogenic differentiation was carried out following a well-established protocol.[63]^,[142] Upon reaching approximately 70% confluence, cells were induced to differentiate (day 0) by replacing the culture medium with complete DMEM containing 10μg/mL insulin. Experimental groups received either EL244 (1μM or 10μΜ) or the standard adipogenic induction cocktail consisting of 1μM dexamethasone (DEX) and 0.5mM 3-isobutyl-1-methylxanthine (IBMX), as indicated. On day 3, the medium was replaced with complete DMEM supplemented with 10μg/mL insulin, with continued exposure to EL244 (1μM or 10μM) in the respective treatment groups. On day 6, the medium was refreshed with complete DMEM containing the corresponding concentrations of EL244.
Differentiated adipocytes were fixed with 10% formalin solution for 2 h, washed with 60% isopropanol, and stained with filtered 0.3% (w/v) Oil red O solution for 20 min. Following staining, cells were washed three times with dH2O to remove excess dye and observed using a bright-field microscope. Fow quantification, cells were destained with 100% isopropanol and lipid accumulation levels were quantified by Oil red O absorption at 500nm.

Sequence of hERG (Q12809 whole entry): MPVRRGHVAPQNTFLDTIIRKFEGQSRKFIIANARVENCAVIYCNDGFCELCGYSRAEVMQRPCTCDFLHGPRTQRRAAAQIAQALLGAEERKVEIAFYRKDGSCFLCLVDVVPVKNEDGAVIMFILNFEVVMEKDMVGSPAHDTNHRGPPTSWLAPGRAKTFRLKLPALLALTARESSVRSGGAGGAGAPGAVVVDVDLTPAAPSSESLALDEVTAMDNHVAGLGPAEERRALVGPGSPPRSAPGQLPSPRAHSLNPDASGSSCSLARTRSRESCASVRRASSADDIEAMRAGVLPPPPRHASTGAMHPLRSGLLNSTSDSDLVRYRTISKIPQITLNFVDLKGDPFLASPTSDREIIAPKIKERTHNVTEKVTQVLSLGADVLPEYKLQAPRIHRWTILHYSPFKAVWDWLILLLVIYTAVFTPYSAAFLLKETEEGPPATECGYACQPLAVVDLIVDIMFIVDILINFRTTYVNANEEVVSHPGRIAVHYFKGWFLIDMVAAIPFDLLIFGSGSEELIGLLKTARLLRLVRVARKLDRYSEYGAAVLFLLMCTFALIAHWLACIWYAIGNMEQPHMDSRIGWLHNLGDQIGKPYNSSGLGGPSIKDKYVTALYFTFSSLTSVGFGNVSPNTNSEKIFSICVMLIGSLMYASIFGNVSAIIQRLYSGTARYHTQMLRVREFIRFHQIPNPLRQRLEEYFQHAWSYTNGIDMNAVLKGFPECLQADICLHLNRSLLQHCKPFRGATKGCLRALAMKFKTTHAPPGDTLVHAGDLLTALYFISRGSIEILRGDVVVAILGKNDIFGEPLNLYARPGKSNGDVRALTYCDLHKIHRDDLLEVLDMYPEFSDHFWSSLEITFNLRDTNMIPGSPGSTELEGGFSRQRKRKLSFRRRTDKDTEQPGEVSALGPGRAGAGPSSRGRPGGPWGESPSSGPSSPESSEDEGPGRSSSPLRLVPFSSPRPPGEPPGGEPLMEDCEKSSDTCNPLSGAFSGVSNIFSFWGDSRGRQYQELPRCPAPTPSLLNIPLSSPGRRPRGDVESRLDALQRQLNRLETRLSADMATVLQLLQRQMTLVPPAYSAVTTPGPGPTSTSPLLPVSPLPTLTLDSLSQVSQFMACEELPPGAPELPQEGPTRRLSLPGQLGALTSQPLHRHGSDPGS

Row | SMILES | Plasma concentrations after i.p. and per os administration [1] | IC50 [2] | inhibition at 25 μM ([2]; human, 25 μΜ) | Binding site on ATX ([3]; HDX-MS, protected region 214–289 mapped on 2XR9) | ATX inhibitor type ([3]; HDX/MS and MD analysis) | Adipogenesis (oil red O lipid droplets) ([4]; 1 or 10 μM with insulin, compared with IBMX/DEX) | Expression of PPARγ target genes (Adipoq, Fabp4, CD36) and PPARγ ([4]; RT-qPCR)
1 | O=C1NC(=O)C(Cc2ccc(OCCN3CCN(C(=O)OCc4cc(Cl)cc(Cl)c4)CC3)cc2)S1 (stereo not shown) [Compound 5, 3,5-dichlorobenzyl4-(2-(4-((2,4-dioxothiazolidin-5-yl)methyl)phenoxy)ethyl)piperazine-1-carboxylate] | comparable to the respective i.v. concentrations | – | – | – | – | – | –
2 | O=C1NC(=O)C(Cc2ccc(OCCC3CCN(C(=O)OCc4cc(Cl)cc(Cl)c4)CC3)cc2)S1 (stereo not shown) [EL244, 3,5-dichlorobenzyl 4-(2-(4-((2,4-dioxothiazolidin-5-yl)methyl)phenoxy)ethyl)piperidine-1-carboxylate] | – | > 25 µM | ~12% | binds to the hydrophobic pocket and the allosteric tunnel of ATX | type IV ATX inhibitor | promoted adipogenesis dose responsively | induced the expression of several PPARγ target genes
